In patent US20170281806A1, “CHELATOR-TARGETING LIGAND CONJUGATES FOR CARDIOVASCULAR IMAGING” (priority 2009, published 2017):
Entries after “also recorded” stand apart in the source; their conditions may differ.

Legend:
LV = assay type: in vivo, dog
Source text: In two dogs with right atrial pacing at 180 beats per minute (bpm) for 5 weeks, there was significant deterioration of cardiac ejection fraction at the 5 week timepoint with ejection fraction reduced to less than 25% in both cases.

LAD zone = test: Ischemic memory, acute model: SPECT, ex vivo imaging, gamma well counting; assay type: in vivo, dog; conditions: for activity in the LAD zone relative to the normal LCx zone (gamma well counter), FIG. 3: after reperfusion
Description: FIG. 2. Time line of protocol concerning ischemic memory. LAD flow was reduced by 75% tightening of a snare occluder in dogs to produce resting ischemia for 90 minutes followed by full perfusion. 99mTc-EC-glucosamine was injected 15 minutes after reflow with SPECT performed at one hour post injection.
In two dogs, LAD flow was reduced by 75% by tightening a snare occluder to produce resting ischemia for 90 minutes followed by full reperfusion. 99mTc-EC-glucosamine was injected 15 minutes after reflow with SPECT imaging performed at one hour post injection. No perfusion images were acquired in these studies, however, the perfusion image shown from another dog in the same position on the table is fused with the 99mTc-EC-glucosamine images for orientation purposes only (FIG. 2).
The heart slides were divided into 96 segments and counted in a gamma well counter for microsphere flow, Tl-201 activity, and 99mTc-EC-glucosamine uptake.

myocardium [1] = assay type: in vivo; conditions: dog
Description: In this model, one of the major coronary arteries, either the left anterior descending (LAD) or left circumflex (LCx) coronary artery and all visible collateral vessels are tied off for 120 minutes, followed by complete reflow of the vessels. The chest is closed and the dogs are recovered and followed for up to 8 weeks with MR and SPECT imaging. […] Autoradiography and gamma well counting of 99mTc activity is not possible when using a 99mTc perfusion agent at the same time as 99mTc-EC-glucosamine. […] It is possible that the improved labeling efficiency in the 72 hour and 1 week scans resulted from changes that were made in the instructions for reconsistituting the 99mTc-EC-glucosamine kits. […] This dog will undergo further imaging at 4 weeks and again at 7.5/8 weeks as described above.

myocardium [2] = test: Ischemic memory, chronic model; assay type: in vivo, dog; conditions: LAD flow reduced 90% for 90 minutes
Description: In a third dog, the protocol above was modified to examine 99mTc-EC-glucosamine uptake at later time points after reperfusion. In addition, the severity of the ischemic insult was increased such that LAD flow was reduced by 90% rather than 75% for 90 minutes. 99mTc-EC-glucosamine uptake was assessed at 48 hours and one week after reperfusion.

| Compound | uptake in the LV (SPECT) (LV; dogs, right atrial pacing 180 bpm for 5 weeks) | activity in the LAD zone relative to the normal LCx zone (gamma well counter), FIG. 3 (LAD zone) | uptake in the heart (SPECT) (myocardium [1]; 48 hours post myocardial infarction) | uptake in the posterior wall (SPECT) (myocardium [1]; LCx occlusion, 72 hours post infarction, imaging 2 hours after injection) | uptake in the myocardium (SPECT) (myocardium [1]; baseline before infarction) | blood pool activity (LV; dog, in vivo) | uptake by in vivo SPECT (LAD zone; LAD flow reduced 75% for 90 minutes, injected 15 minutes after reflow, SPECT one hour post injection) | uptake in mildly ischemic areas (LAD zone; flow reduced by 20-40% of normal) | activity relative to the normal zone, central ischemic zone (LAD zone; flow reduced by 60-80% of normal) | uptake in central and border zone ischemic areas (LAD zone; segments by degree of flow reduction during ischemia, FIG. 4) | uptake after reperfusion (myocardium [2]; 48 hours after reperfusion) | uptake after reperfusion (myocardium [2]; one week after reperfusion) |
| --- | --- | --- | --- | --- | --- | --- | --- | --- | --- | --- | --- | --- |
| CCOCC[PH+](CCOCC)CC[PH+](CCOCC)CCOCC.CCOCC[PH+](CCOCC)CC[PH+](CCOCC)CCOCC.[O]=[99Tc]=[O] [tetrofosmin, technetium Tc-99m tetrofosmin, reference compound] | not completely homogenous | – | – | – | – | – | – | – | – | – | – | – |
| [201Tl] [Tl-201, thallium-201, reference compound] | – | slightly reduced | – | – | – | – | – | – | – | – | – | – |
| 99mTc-ethylenedicysteine (EC) glucosamine [99mTc-EC-glucosamine] | – | significantly higher | small focal hot spot | large amount of 99mTc-EC-glucosamine uptake | no 99mTc-EC-glucosamine uptake observed in the myocardium; also recorded: no 99mTc-EC-glucosamine was observed in the myocardium | significant amount of blood pool activity | focal 99mTc-EC-glucosamine hot spot in the apex of the heart; also recorded: focal hotspot | enhanced 99mTc-EC-glucosamine uptake | greater than 150% | enhanced | uptake was observed | no uptake |
